Results taken from paper PMC7413254 (Nature Communications, 2020).

How the values were obtained:
Format in all cases: cell-based
PfCRT^Dd2 [1] = target: T1, PfCRT^Dd2 (Plasmodium falciparum, UniProt Q9N623, A220S/I356T/K76T/M74I/N326S/N75E/Q271E/R371I); assay: [3H]CQ uptake into Xenopus oocytes, cis-inhibition by unlabelled solute; conditions: PfCRTDd2 oocytes, background [3H]CQ accumulation subtracted, normalised to oocyte type control
Text: (§1) The orientation of PfCRT in the parasite’s DV membrane, and also in the oocyte plasma membrane, is such that its N- and C-termini extend into the cytosol. The oocytes were suspended in a reaction buffer adjusted to pH 5.5 to mimic the pH of the DV lumen[1],[2]. In this scenario, the transport of a substrate via PfCRT from the acidic extracellular solution into the oocyte cytosol[15] is analogous to the parasite’s PfCRT-mediated efflux of a substrate from the acidic DV and into the cytosol. Unless specified otherwise, this is the direction in which substrate transport was measured in the oocyte assays.
(§2) Unless specified otherwise, the transport assays were conducted over 1.5 h at 27.5 °C and the reaction buffer was ND96 (96 mM NaCl, 2 mM KCl, 1 mM MgCl2, 1.8 mM CaCl2, 10 mM MES and 10 mM Tris-base) at pH 5.5.
(§3) Ten oocytes were washed twice with the relevant ND96 buffer. […] The assay was terminated by removing the reaction buffer and washing the oocytes with ice-cold ND96 buffer. The oocytes were lysed in 10% (w/v) sodium dodecyl sulfate (SDS) and the radioactivity accumulated within each oocyte was measured with a MicroBeta^2 microplate liquid scintillation analyser (PerkinElmer).
(§4) At least four independent experiments were performed (on different days and using oocytes from different frogs), and within each experiment measurements were made from ten oocytes per treatment.

PfCRT^Ecu1110 [2] = target: T2, PfCRT^Ecu1110 (Plasmodium falciparum, UniProt Q9N623, A220S/I356L/K76T/N326D); assay: as above; conditions: for PfCRT-mediated [3H]CQ transport, cis-inhibition (% PfCRTEcu1110 control): PfCRTEcu1110 oocytes, background [3H]CQ accumulation subtracted, normalised to oocyte type control; for [3H]CQ transport (% PfCRTEcu1110 control), cis-inhibition, PfCRTEcu1110: PfCRT-mediated component (background subtracted), sheet title says normalised to PfCRTDd2 control, mean ± SEM, SEM
Text: as §1, §2, §3, §4

PfCRT^3D7 = PfCRT^3D7 (Plasmodium falciparum, UniProt Q8IBZ9); assay: cell-based; conditions: for PfCRT-mediated [3H]CQ transport, trans-stimulation (% PfCRT3D7 control): PfCRT3D7 oocytes, normalised to oocyte type control
Procedure: as §2
(§5) The intracellular concentrations were calculated using previous estimates of the volume of stage V–VI oocytes (~400 nL[60]). […] The oocytes were injected with VF-6 suspended in 25 nL ND96 buffer adjusted to pH 5.0, 5.5, 6.0 or 7.0, which corresponded to the injection of 2.5–250 fmol of H^+. The Na^+-dependence of the trans-stimulatory effect of VF-6 was assessed by injecting the oocytes with VF-6 suspended in ND96 buffer (pH 5.5) or a Na^+-free version of this buffer (the Na^+ was replaced with choline).
as §4

PfCRT^Dd2 [3] = target: T1, PfCRT^Dd2; assay: cell-based; conditions: for PfCRT-mediated [3H]CQ transport, trans-stimulation (% PfCRTDd2 control): PfCRTDd2 oocytes, normalised to oocyte type control; for [3H]CQ transport (% PfCRTDd2 control), trans-stimulation, PfCRTDd2: PfCRT-mediated component (background subtracted), mean ± SEM, SEM
Procedure: as §2, §5, §4

PfCRT^Ecu1110 [4] = target: T2, PfCRT^Ecu1110; assay: cell-based; conditions: for PfCRT-mediated [3H]CQ transport, trans-stimulation (% PfCRTEcu1110 control): PfCRTEcu1110 oocytes, normalised to oocyte type control; for [3H]CQ transport (% PfCRTDd2 control), trans-stimulation, PfCRTEcu1110: PfCRT-mediated component (background subtracted), sheet title says normalised to PfCRTDd2 control, mean ± SEM, SEM
Procedure: as §2, §5, §4

[5] = [test solute]i = 5 mM (intracellular)
[6] = [test solute]i = 45 mM (intracellular; 30 mM for some solutes due to solubility)
[7] = [test solute]i = 5 mM (injected)
[8] = [test solute]i = 45 mM (30 mM for some solutes due to solubility)

T1 sequence (Q9N623 whole entry A220S/I356T/K76T/M74I/N326S/N75E/Q271E/R371I): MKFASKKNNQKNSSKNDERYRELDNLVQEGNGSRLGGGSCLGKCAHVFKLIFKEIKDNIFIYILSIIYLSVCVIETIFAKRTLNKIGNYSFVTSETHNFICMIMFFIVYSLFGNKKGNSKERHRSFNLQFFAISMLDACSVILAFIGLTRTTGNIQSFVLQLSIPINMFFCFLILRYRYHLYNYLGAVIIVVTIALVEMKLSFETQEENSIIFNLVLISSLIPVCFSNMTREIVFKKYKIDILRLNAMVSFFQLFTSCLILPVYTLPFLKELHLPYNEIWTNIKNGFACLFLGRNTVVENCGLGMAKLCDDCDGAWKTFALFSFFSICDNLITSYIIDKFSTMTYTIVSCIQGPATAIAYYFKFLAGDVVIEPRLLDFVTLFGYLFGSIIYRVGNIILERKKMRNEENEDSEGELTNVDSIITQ
PfCRT^3D7, sequence (Q8IBZ9 59-398): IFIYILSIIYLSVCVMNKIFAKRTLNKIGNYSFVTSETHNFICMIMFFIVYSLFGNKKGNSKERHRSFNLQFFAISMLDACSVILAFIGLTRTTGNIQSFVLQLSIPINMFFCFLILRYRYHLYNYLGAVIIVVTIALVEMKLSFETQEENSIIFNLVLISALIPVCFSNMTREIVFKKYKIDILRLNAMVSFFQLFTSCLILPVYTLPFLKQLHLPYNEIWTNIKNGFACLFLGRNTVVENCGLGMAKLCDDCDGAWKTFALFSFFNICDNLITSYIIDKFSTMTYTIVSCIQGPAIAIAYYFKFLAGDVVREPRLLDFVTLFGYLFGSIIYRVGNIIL
T2 sequence (Q9N623 whole entry A220S/I356L/K76T/N326D): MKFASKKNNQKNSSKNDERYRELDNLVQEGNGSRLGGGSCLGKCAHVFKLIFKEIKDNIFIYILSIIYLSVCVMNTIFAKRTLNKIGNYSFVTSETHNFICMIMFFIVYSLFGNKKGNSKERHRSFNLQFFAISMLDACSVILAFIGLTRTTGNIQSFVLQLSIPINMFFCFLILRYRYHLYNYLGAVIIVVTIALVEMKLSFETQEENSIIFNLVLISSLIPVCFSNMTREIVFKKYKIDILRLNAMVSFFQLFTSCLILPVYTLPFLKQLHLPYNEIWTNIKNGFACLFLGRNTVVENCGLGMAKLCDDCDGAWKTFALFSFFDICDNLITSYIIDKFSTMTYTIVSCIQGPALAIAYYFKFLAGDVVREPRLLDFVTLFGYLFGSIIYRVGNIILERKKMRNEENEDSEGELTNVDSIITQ

Substance | PfCRT-mediated [3H]CQ transport, cis-inhibition (% PfCRTDd2 control) (PfCRT^Dd2 [1]; [test solute] = 0.5 mM) | PfCRT-mediated [3H]CQ transport, cis-inhibition (% PfCRTDd2 control) (PfCRT^Dd2 [1]; [test solute] = 1 mM) | PfCRT-mediated [3H]CQ transport, cis-inhibition (% PfCRTDd2 control) (PfCRT^Dd2 [1]; [test solute] = 2 mM) | PfCRT-mediated [3H]CQ transport, cis-inhibition (% PfCRTEcu1110 control) (PfCRT^Ecu1110 [2]; [test solute] = 0.5 mM) | PfCRT-mediated [3H]CQ transport, cis-inhibition (% PfCRTEcu1110 control) (PfCRT^Ecu1110 [2]; [test solute] = 1 mM) | PfCRT-mediated [3H]CQ transport, cis-inhibition (% PfCRTEcu1110 control) (PfCRT^Ecu1110 [2]; [test solute] = 2 mM) | [3H]CQ transport (% PfCRTEcu1110 control), cis-inhibition, PfCRTEcu1110 (PfCRT^Ecu1110 [2]; [test solute] = 2 mM) | [3H]CQ transport (% PfCRT3D7 control), trans-stimulation, PfCRT3D7 (PfCRT^3D7; SEM) | PfCRT-mediated [3H]CQ transport, trans-stimulation (% PfCRT3D7 control) (PfCRT^3D7; [5]) | PfCRT-mediated [3H]CQ transport, trans-stimulation (% PfCRT3D7 control) (PfCRT^3D7; [6]) | PfCRT-mediated [3H]CQ transport, trans-stimulation (% PfCRTDd2 control) (PfCRT^Dd2 [3]; [5]) | PfCRT-mediated [3H]CQ transport, trans-stimulation (% PfCRTDd2 control) (PfCRT^Dd2 [3]; [6]) | [3H]CQ transport (% PfCRTDd2 control), trans-stimulation, PfCRTDd2 (PfCRT^Dd2 [3]; [7]) | [3H]CQ transport (% PfCRTDd2 control), trans-stimulation, PfCRTDd2 (PfCRT^Dd2 [3]; [8]) | PfCRT-mediated [3H]CQ transport, trans-stimulation (% PfCRTEcu1110 control) (PfCRT^Ecu1110 [4]; [5]) | PfCRT-mediated [3H]CQ transport, trans-stimulation (% PfCRTEcu1110 control) (PfCRT^Ecu1110 [4]; [6]) | [3H]CQ transport (% PfCRTDd2 control), trans-stimulation, PfCRTEcu1110 (PfCRT^Ecu1110 [4]; [7]) | [3H]CQ transport (% PfCRTDd2 control), trans-stimulation, PfCRTEcu1110 (PfCRT^Ecu1110 [4]; [8]) | [3H]CQ transport (% PfCRTEcu1110 control), cis-inhibition, PfCRTEcu1110 (PfCRT^Ecu1110 [2]; [test solute] = 0.5 mM) | [3H]CQ transport (% PfCRTEcu1110 control), cis-inhibition, PfCRTEcu1110 (PfCRT^Ecu1110 [2]; [test solute] = 1 mM)
AEALERMF [AF-8] | 61 ± 1.3 % PfCRTDd2 control | 52 ± 2.6 % PfCRTDd2 control | 19 ± 0.1 % PfCRTDd2 control | 52 ± 2.9 % PfCRTEcu1110 control | 41 ± 2.1 % PfCRTEcu1110 control | 32 ± 1.1 % PfCRTEcu1110 control | 10 ± 0.06 % PfCRTEcu1110 control | 0.1 ± 0.03 | 97 ± 3.2 % PfCRT3D7 control | 97 ± 3.5 % PfCRT3D7 control | 97 ± 2.8 % PfCRTDd2 control | 96 ± 4.3 % PfCRTDd2 control | 97 ± 2.8 % PfCRTDd2 control | 96 ± 4.3 % PfCRTDd2 control | 96 ± 3.1 % PfCRTEcu1110 control | 98 ± 4.1 % PfCRTEcu1110 control | 29 ± 1.0 % PfCRTEcu1110 control | 30 ± 1.9 % PfCRTEcu1110 control |  | 
DLDDALDK [DK-8] | 44 ± 3.7 % PfCRTDd2 control | 32 ± 1.5 % PfCRTDd2 control | 24 ± 0.8 % PfCRTDd2 control | 49 ± 1.4 % PfCRTEcu1110 control | 39 ± 2.1 % PfCRTEcu1110 control | 30 ± 0.8 % PfCRTEcu1110 control | 9.0 ± 0.05 % PfCRTEcu1110 control |  | 96 ± 3.3 % PfCRT3D7 control | 96 ± 3.4 % PfCRT3D7 control | 98 ± 3.3 % PfCRTDd2 control | 95 ± 4.1 % PfCRTDd2 control | 98 ± 3.3 % PfCRTDd2 control | 95 ± 4.1 % PfCRTDd2 control | 95 ± 4.9 % PfCRTEcu1110 control | 97 ± 2.9 % PfCRTEcu1110 control | 29 ± 1.5 % PfCRTEcu1110 control | 29 ± 1.1 % PfCRTEcu1110 control | 15 ± 0.6 % PfCRTEcu1110 control | 13 ± 0.1 % PfCRTEcu1110 control
DLPVG [DG-5] | 29 ± 0.6 % PfCRTDd2 control | 22 ± 1.3 % PfCRTDd2 control | 11 ± 0.1 % PfCRTDd2 control | 46 ± 1.8 % PfCRTEcu1110 control | 33 ± 2.7 % PfCRTEcu1110 control |  | 5.0 ± 0.05 % PfCRTEcu1110 control |  | 128 ± 2.2 % PfCRT3D7 control | 146 ± 3.2 % PfCRT3D7 control | 98 ± 1.0 % PfCRTDd2 control | 113 ± 1.1 % PfCRTDd2 control | 98 ± 1.0 % PfCRTDd2 control | 113 ± 1.1 % PfCRTDd2 control | 115 ± 1.5 % PfCRTEcu1110 control | 118 ± 1.1 % PfCRTEcu1110 control | 35 ± 1.5 % PfCRTEcu1110 control | 36 ± 1.3 % PfCRTEcu1110 control | 14 ± 0.5 % PfCRTEcu1110 control | 10 ± 0.6 % PfCRTEcu1110 control
DMPNALS [DS-7, host-derived peptide upstream of PL-4] | 49 ± 1.1 % PfCRTDd2 control | 41 ± 1.0 % PfCRTDd2 control | 27 ± 0.2 % PfCRTDd2 control | 51 ± 4.1 % PfCRTEcu1110 control | 48 ± 1.4 % PfCRTEcu1110 control | 29 ± 1.5 % PfCRTEcu1110 control | 9.0 ± 0.05 % PfCRTEcu1110 control |  | 136 ± 4.1 % PfCRT3D7 control | 188 ± 4.6 % PfCRT3D7 control | 97 ± 3.6 % PfCRTDd2 control | 112 ± 3.5 % PfCRTDd2 control | 97 ± 3.6 % PfCRTDd2 control | 112 ± 3.5 % PfCRTDd2 control | 128 ± 3.1 % PfCRTEcu1110 control | 135 ± 4.2 % PfCRTEcu1110 control | 39 ± 1.6 % PfCRTEcu1110 control | 41 ± 1.9 % PfCRTEcu1110 control | 16 ± 0.2 % PfCRTEcu1110 control | 15 ± 0.4 % PfCRTEcu1110 control
